Read-outs that look alike come from different tables or passages of the source.

The target of assay [1] is T1, 11β-hsd-1 enzyme (Homo sapiens, UniProt P28845). Nature of the assay: biochemical. The settings on record: for inhibition at 0.1 µM: read-out: % Inh @ 0.1 μM. Put shortly: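 Human 11β-HSD-1 (5 nM) pre-incubated ≥30 min with inhibitor and 500 μM NADPH in triethanolamine buffer pH 8.0 with NaCl, n-dodecyl β-D-maltoside and β-ME; reaction started with G6P/G6PDH/MgCl2 regenerating system and 200 nM 3H-cortisone, run 60 min, stopped with DMSO. 3H-cortisol and substrate separated by radio-HPLC; percent inhibition from peak areas.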

Assay [2] deals with T1, 11β-hsd-1 enzyme. The assay can be described thus: biochemical. On the procedure:
The 11β-hsd-1 assay was performed in a 100 mM Triethanolamine buffer pH 8.0, containing 200 mM NaCl, 0.02% n-dodecyl β-D-maltoside, 5% glycerol, 5 mM β-mercaptoethanol. A typical reaction for the determination of Kiapp values was carried at R.T. in a Corning® u-bottom 96-well plate and is described as follows: 11β-hsd-1 enzyme (5 nM, final concentration) was pre-incubated in the presence of the inhibitor and NADPH (500 μM, final concentration) for at least 30 minutes in the assay buffer. When pre-incubation was completed, the reaction was initiated by adding the regenerating system (2 mM Glucose-6-Phosphate, 1U/mL Glucose-6-Phosphate dehydrogenase, and 6 mM MgCl2, all the concentration reported are final in the assay buffer), and 3H-cortisone (200 nM, final concentration). After 60 minutes, 60 μL of the assay mixture was transferred to a second 96-well plate and mixed with an equal volume of dimethylsulfoxide to stop the reaction. A 15 μL aliquot from the reaction mixture was loaded into a C-18 column (Polaris C18-A, 50×4.6 mm, 5 μ, 180 Angstrom from Varian) connected to an automated High-throughput Liquid Chromatography instrument developed by Cohesive Technologies Inc, of Franklin, Mass. USA, with a β-RAM model 3 Radio-HPLC detector from IN/US, of Tampa, Fla. USA. The substrate and product peaks were separated by using an isocratic mixture of 43:57 methanol to water (v/v) at a flow rate of 1.0 mL/min.
The initial reaction velocities were measured by stopping the reaction at 60 min and by measuring the area of product formation in the absence and the presence of various concentrations of inhibitors. The Kiapp values were determined using the equation for tight-binding inhibitor developed by Morrison, J. F. (Morrison J. F. Biochim BiophysActa. 1969; 185: 269-86).
The radiolabeled [1,2-3H]-cortisone is commercially available from American Radiolabeled Chemicals Inc of St. Louis, Mo. USA. NADPH, Glucose-6-Phosphate, and Glucose-6-Phosphate dehydrogenase were purchased from Sigma®.
(Morrison J. F. Biochim Biophys Acta. 1969; 185: 269-86).

T1 sequence (P28845 whole entry, species assumed): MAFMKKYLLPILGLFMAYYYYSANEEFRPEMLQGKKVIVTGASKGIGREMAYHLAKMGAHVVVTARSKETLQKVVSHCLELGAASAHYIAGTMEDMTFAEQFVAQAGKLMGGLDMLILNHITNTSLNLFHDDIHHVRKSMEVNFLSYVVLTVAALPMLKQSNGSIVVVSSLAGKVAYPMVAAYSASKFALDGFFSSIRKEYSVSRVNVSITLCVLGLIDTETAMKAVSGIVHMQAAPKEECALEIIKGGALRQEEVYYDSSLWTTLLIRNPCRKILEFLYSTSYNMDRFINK

Take `N#Cc1ccc(N2CCN(S(=O)(=O)Nc3cccc(CO)n3)CC2)nc1` [Example 29, 4-(5-cyanopyridin-2-yl)-N-[6-(hydroxymethyl)pyridin-2-yl]piperazine-1-sulfonamide]: the inhibition at 0.1 µM on 11β-hsd-1 enzyme [1] (Table 1, inhibitor 0.1 μM) turned out to be 95%. The compound also gave a Ki at 11β-hsd-1 enzyme [2] of 13 nM.

For the compound `COc1cccc(N2CCN(S(=O)(=O)Nc3ccc4ccccc4n3)CC2)n1` [Example 165, 4-(6-methoxypyridin-2-yl)-N-quinolin-2-ylpiperazine-1-sulfonamide], the inhibition on 11β-hsd-1 enzyme [1] (read-out: % Inh @ 0.1 mM) amounted to 100%. Further, the Ki on 11β-hsd-1 enzyme [2] was 1.4 nM.

As for `CCc1cccc(NS(=O)(=O)N2CCC(C(F)(F)F)CC2)n1` [Example 106, N-(6-ethylpyridin-2-yl)-4-(trifluoromethyl)piperidine-1-sulfonamide], the inhibition on 11β-hsd-1 enzyme [1] (read-out: % Inh @ 0.1 mM) is 100%. At 11β-hsd-1 enzyme [2], this compound displayed a Ki of 7 nM.

Consider `N#Cc1ccc(C2CCN(S(=O)(=O)Nc3ccc4ccccc4n3)CC2)nc1` [Example 38], for which, on 11β-hsd-1 enzyme [1], the inhibition at 0.1 µM was determined as 100%. The compound also yielded a Ki on 11β-hsd-1 enzyme [2] of 31 nM.

Take `CCc1cccc(NS(=O)(=O)N2CCc3ccc(S(C)(=O)=O)cc3CC2)n1` [Example 18]: the inhibition at 0.1 µM on 11β-hsd-1 enzyme [1] (Table 1, inhibitor 0.1 μM) stood at 78.2%. This compound also returned a Ki at 11β-hsd-1 enzyme [2] of 13 nM.

For the compound `CCc1cccc(NS(=O)(=O)N2CCC(Cc3cc(F)ccc3C)CC2)n1` [Example 102, N-(6-ethylpyridin-2-yl)-4-(5-fluoro-2-methylbenzyl)piperidine-1-sulfonamide], the inhibition at 100 µM on 11β-hsd-1 enzyme [1] (Table 2, inhibitor 0.1 mM as printed, read-out: % Inh @ 0.1 mM) was found to be 100%. The Ki on 11β-hsd-1 enzyme [2] was 5.4 nM.

With `Cc1cc(N)nc(NS(=O)(=O)N2CCN(c3ccc(C#N)cn3)CC2)c1` [Example 20, N-(6-amino-4-methylpyridin-2-yl)-4-(5-cyanopyridin-2-yl)piperazine-1-sulfonamide], the inhibition at 0.1 µM on 11β-hsd-1 enzyme [1] came to 100%. On 11β-hsd-1 enzyme [2], this compound registered a Ki of 2.5 nM.

As to `Cc1cccc(NS(=O)(=O)N2CCCN(c3ncccn3)CC2)n1` [Example 133, N-(6-methylpyridin-2-yl)-4-pyrimidin-2-yl-14-diazepane-1-sulfonamide], the inhibition on 11β-hsd-1 enzyme [1] (read-out: % Inh @ 0.1 mM) worked out at 71%. This compound also came in with a Ki on 11β-hsd-1 enzyme [2] of 330 nM.

Take “4-(6-chloro-13-benzoxazol-2- yl)-N-quinolin-2-ylpiperazine- 1-sulfonamide [Example 167]”: the “% Inh @ 0.1 mM” value at 11β-hsd-1 enzyme [1] (Table 2, inhibitor 0.1 mM as printed) worked out at 100%. Moreover, the Ki at 11β-hsd-1 enzyme [2] (read-out: Klapp, Table 2, 5 nM enzyme, 200 nM 3H-cortisone, 500 μM NADPH) is 3.4 nM.

With `CCc1cccc(NS(=O)(=O)N2CCCC(F)(F)C2)n1` [Example 101, N-(6-ethylpyridin-2-yl)-33-difluoropiperidine-1-sulfonamide], the inhibition on 11β-hsd-1 enzyme [1] (read-out: % Inh @ 0.1 mM) was 78.3%. Moreover, the Ki at 11β-hsd-1 enzyme [2] amounted to 34 nM.

As to `Cc1cccc(NS(=O)(=O)N2CCC(F)(c3ccc(C#N)cc3)CC2)n1` [Example 25, 4-(4-cyanophenyl)-4-fluoro-N-(6-methylpyridin-2-yl)piper-idine-1-sulfonamide], the inhibition at 0.1 µM on 11β-hsd-1 enzyme [1] (Table 1, inhibitor 0.1 μM) is 50%. This compound gave a Ki at 11β-hsd-1 enzyme [2] of 63.5 nM.

In the case of `CCc1cccc(NS(=O)(=O)N2CCCCCCC2)n1` [Example 193, N-(6-ethylpyridin-2-yl)azocane-1-sulfonamide], on 11β-hsd-1 enzyme [1] (read-out: % Inh @ 0.1 mM), the inhibition worked out at 92.5%. Besides, the Ki at 11β-hsd-1 enzyme [2] stood at 7.7 nM.

In the case of `CCc1cccc(NS(=O)(=O)N2CCc3c(Cl)cccc3C2)n1` [Example 190, 5-chloro-N-(6-ethylpyridin-2-yl)-34-dihydroisoquinoline-2(1H)-sulfonamide], the inhibition on 11β-hsd-1 enzyme [1] (read-out: % Inh @ 0.1 mM) is 100%. This compound also had a Ki on 11β-hsd-1 enzyme [2] of 1 nM.

Take `CCc1cccc(NS(=O)(=O)N2CCC(CCc3ccnc(NCC4CC4)n3)CC2)n1` [Example 82, 4-(2-{2-[(cyclopropylmethyl)-amino]pyrimidin-4-yl}ethyl)-N-(6-ethylpyridin-2-yl)piperidine-1-sulfonamide]: at 11β-hsd-1 enzyme [1] (read-out: % Inh @ 0.1 mM), the inhibition was 100%. This compound came in with a Ki at 11β-hsd-1 enzyme [2] of 11 nM.

Take `CCc1cccc(NS(=O)(=O)N2CCCCC2c2ccc(F)cc2)n1` (stereo not shown) [Example 105, N-(6-ethylpyridin-2-yl)-2-(4-fluorophenyl)piperidine-1-sulfonamide]: at 11β-hsd-1 enzyme [1] (read-out: % Inh @ 0.1 mM), the inhibition stood at 90.1%. Further, the Ki at 11β-hsd-1 enzyme [2] is 8.2 nM.

`CCc1cccc(NS(=O)(=O)N2CCC(Oc3ccccc3)CC2)n1` [Example 123, N-(6-ethylpyridin-2-yl)-4-phenoxypiperidine-1-sulfanamide]: the inhibition on 11β-hsd-1 enzyme [1] (read-out: % Inh @ 0.1 mM) turned out to be 100%. Besides, the Ki on 11β-hsd-1 enzyme [2] was 22 nM.

Consider `CCc1cccc(NS(=O)(=O)N2CCC(C)CC2)n1` [Example 117, N-(6-ethylpyridin-2-yl)-4-methylpiperidine-1-sulfonamide], for which the inhibition on 11β-hsd-1 enzyme [1] (read-out: % Inh @ 0.1 mM) came to 65.2%. Further, the Ki at 11β-hsd-1 enzyme [2] came out at 45 nM.

Regarding `CC(C)c1cccc(NS(=O)(=O)N2CCN(c3ccc(C#N)cn3)CC2)n1` [Example 32, 4-(5-cyanopyridin-2-yl)-N-(6-isopropylpyridin-2-yl)piper-azine-1-sulfonamide], the inhibition at 0.1 µM on 11β-hsd-1 enzyme [1] was 97%. In addition, the Ki at 11β-hsd-1 enzyme [2] is 2.4 nM.

`Cc1cccc(NS(=O)(=O)N2CCC(c3ccc(C#N)cn3)CC2)n1` [Example 33, 4-(5-cyanopyridin-2-yl)-N-(6-methylpyridin-2-yl)piperidine-1-sulfonamide]: the inhibition at 0.1 µM on 11β-hsd-1 enzyme [1] amounted to 100%. The same compound returned a Ki at 11β-hsd-1 enzyme [2] of 50 nM.

Consider `CCc1cccc(NS(=O)(=O)N2CCN(c3ncccc3C#N)CC2)n1` [Example 201, 4-(3-cyanopyridin-2-yl)-N-(6-ethylpyridin-2-yl)piperazine-1-sulfonamide], for which, on 11β-hsd-1 enzyme [1] (read-out: % Inh @ 0.1 mM), the inhibition stood at 83.9%. The compound further registered a Ki on 11β-hsd-1 enzyme [2] of 33 nM.

Consider `Cc1cc(C)nc(NS(=O)(=O)N2CCN(c3ccc(C(F)(F)F)cn3)CC2)c1` [Example 1, N-(4,6-dimethylpyridin-2-yl)-4-[5-(trifluoromethyl)pyridin-2-yl]piperazine-1-sufonamide], for which the inhibition at 0.1 µM at 11β-hsd-1 enzyme [1] came to 95.9%. At 11β-hsd-1 enzyme [2], this compound had a Ki of 4.1 nM.

In the case of `Cc1cccc(NS(=O)(=O)N2CCc3ccccc3CC2)n1` [Example 11], the inhibition at 0.1 µM at 11β-hsd-1 enzyme [1] is 95.5%. The Ki on 11β-hsd-1 enzyme [2] came out at 2.8 nM.

In the case of `CCc1cccc(NS(=O)(=O)N2CCC(CCc3ccccn3)CC2)n1` [Example 80, N-(6-ethylpyridin-2-yl)-4-(2-pyridin-2-ylethyl)piperidine-1-sulfonamide], the inhibition at 11β-hsd-1 enzyme [1] (read-out: % Inh @ 0.1 mM) worked out at 93.8%. Further, the Ki at 11β-hsd-1 enzyme [2] stood at 5.6 nM.

Take `CCc1cccc(NS(=O)(=O)N2CCN(c3ncccn3)CC2)n1` [Example 191, N-(6-ethylpyridin-2-yl)-4-pyrimidin-2-ylpiperazine-1-sulfonamide]: the inhibition at 11β-hsd-1 enzyme [1] (read-out: % Inh @ 0.1 mM) worked out at 90.5%. The compound also gave a Ki on 11β-hsd-1 enzyme [2] of 120 nM.

Regarding `Cc1cccc(NS(=O)(=O)N2CCc3ccc(S(C)(=O)=O)cc3CC2)n1` [Example 10], the inhibition at 0.1 µM at 11β-hsd-1 enzyme [1] is 79.9%. The same compound gave a Ki at 11β-hsd-1 enzyme [2] of 25.5 nM.

Consider `COCC1CCCN(S(=O)(=O)Nc2ccc3ccccc3n2)CC1` (stereo not shown) [Example 99, 4-(methoxymethyl)-N-quinolin-2-ylazepane-1-sulfonamide], for which the inhibition on 11β-hsd-1 enzyme [1] (read-out: % Inh @ 0.1 mM) was 77.6%. The compound also returned a Ki on 11β-hsd-1 enzyme [2] of 63 nM.

`COc1ccc2oc(N3CCN(S(=O)(=O)Nc4cccc(C)n4)CC3)nc2c1` [Example 137, 4-(5-methoxy-13-benzoxazol-2-yl)-N-(6-methylpyridin-2-yl)piperazine-1-sulfonamide]: the inhibition on 11β-hsd-1 enzyme [1] (read-out: % Inh @ 0.1 mM) was 93.8%. At 11β-hsd-1 enzyme [2], this compound showed a Ki of 9.9 nM.

`Cc1cccc(N2CCN(S(=O)(=O)Nc3ccc4ccccc4n3)CC2)n1` [Example 161, 4-(6-methylpyridin-2-yl)-N-quinolin-2-ylpiperazine-1-sulfonamide]: the inhibition on 11β-hsd-1 enzyme [1] (read-out: % Inh @ 0.1 mM) was determined as 91.9%. The same compound gave a Ki at 11β-hsd-1 enzyme [2] of 16 nM.

As for `CCc1cccc(NS(=O)(=O)N2CCN(c3nc4nc(C)ccc4o3)CC2)n1` [Example 149, N-(6-ethylpyridin-2-yl)-4-(5-methyl[13]oxazolo[45-b]pyridin-2-yl)piperazine-1-sulfonamide], on 11β-hsd-1 enzyme [1] (read-out: % Inh @ 0.1 mM), the inhibition is 78.2%. On 11β-hsd-1 enzyme [2], this compound came in with a Ki of 280 nM.

`CCc1cccc(NS(=O)(=O)N2CCCC(c3ccccc3)CC2)n1` (stereo not shown) [Example 90, N-(6-ethylpyridin-2-yl)-4-phenylazepane-1-sulfonamide]: the inhibition at 11β-hsd-1 enzyme [1] (read-out: % Inh @ 0.1 mM) amounted to 90.9%. Besides, at 11β-hsd-1 enzyme [2], the Ki turned out to be 18 nM.

Turning to `O=C(OCc1ccccc1)N1CCCN(S(=O)(=O)Nc2ccc3ccccc3n2)CC1` [Example 164, benzyl 4-[(quinolin-2-ylamino)sulfonyl]-14-diazepane-1-carboxylate], on 11β-hsd-1 enzyme [1] (read-out: % Inh @ 0.1 mM), the inhibition came out at 81.4%. Moreover, the Ki on 11β-hsd-1 enzyme [2] worked out at 38 nM.

As for `CCc1cccc(NS(=O)(=O)N2CCC(c3cccc(O)c3)CC2)n1` [Example 122, N-(6-ethylpyridin-2-yl)-4-(3-hydroxyphenyl)piperidine-1-sulfonamide], on 11β-hsd-1 enzyme [1] (read-out: % Inh @ 0.1 mM), the inhibition amounted to 91.7%. Moreover, the Ki at 11β-hsd-1 enzyme [2] was determined as 11 nM.
